Common to all, as to type: functional
Test [1] concerns Staphylococcus epidermidis. Nature of the test: Antibacterial activity against methicillin-resistant Staphylococcus epidermidis MRSE17-1 measured by liquid dilution method.
The test system of test [2] is Staphylococcus aureus. The test is described as follows: Antibacterial activity against methicillin-sensitive Staphylococcus aureus MSSA17-3 measured by liquid dilution method.
The subject of test [3] is Staphylococcus epidermidis. Nature of the test: Antibacterial activity against methicillin-resistant Staphylococcus epidermidis MRSE17-3 measured by liquid dilution method.
Test [4] has as its system Staphylococcus aureus. Nature of the test: Antibacterial activity against vancomycin-intermediate Staphylococcus aureus ATCC 700788 measured by liquid dilution method.
For test [5], the system named is Staphylococcus aureus. The test is described as follows: Antibacterial activity against methicillin-resistant Staphylococcus aureus MRSA17-6 measured by liquid dilution method.
The test system of test [6] is Staphylococcus epidermidis. The test is described as follows: Antibacterial activity against methicillin-resistant Staphylococcus epidermidis MRSE17-6 measured by liquid dilution method.
The subject of test [7] is Staphylococcus aureus. The test is described as follows: Antibacterial activity against vancomycin-intermediate Staphylococcus aureus ATCC 700699 measured by liquid dilution method.
Test [8] deals with Staphylococcus epidermidis. The test is described as follows: Antibacterial activity against methicillin-resistant Staphylococcus epidermidis MRSE17-2 measured by liquid dilution method.
The subject of test [9] is Staphylococcus aureus. The test is described as follows: Antibacterial activity against methicillin-resistant Staphylococcus aureus ATCC 43300 measured by liquid dilution method.
Test [10] deals with Staphylococcus aureus. Nature of the test: Antibacterial activity against methicillin-resistant Staphylococcus aureus MRSA17-2 measured by liquid dilution method.
Test [11] deals with Enterococcus faecium. The test is described as follows: Antibacterial activity against Enterococcus faecium EFM17-1 measured by liquid dilution method.
The test system of test [12] is Staphylococcus aureus. Nature of the test: Antibacterial activity against methicillin-sensitive Staphylococcus aureus MSSA17-2 measured by liquid dilution method.
Test [13] has as its system Staphylococcus aureus. Nature of the test: Antibacterial activity against methicillin-sensitive Staphylococcus aureus MSSA17-1 measured by liquid dilution method.
Test [14] deals with Staphylococcus aureus. Nature of the test: Antibacterial activity against methicillin-resistant Staphylococcus aureus MRSA17-3 measured by liquid dilution method.
For test [15], the system named is Staphylococcus epidermidis. The test is described as follows: Antibacterial activity against methicillin-sensitive Staphylococcus epidermidis MSSE17-2 measured by liquid dilution method.
Test [16] deals with Staphylococcus aureus. Nature of the test: Antibacterial activity against Staphylococcus aureus ATCC 29213 measured by liquid dilution method.
Test [17] concerns Enterococcus faecalis. Nature of the test: Antibacterial activity against Enterococcus faecalis ATCC 29212 measured by liquid dilution method.
In test [18] the test system is Staphylococcus epidermidis. The test is described as follows: Antibacterial activity against methicillin-resistant Staphylococcus epidermidis MRSE17-4 measured by liquid dilution method.
Test [19] concerns Staphylococcus aureus. The test is described as follows: Antibacterial activity against methicillin-resistant Staphylococcus aureus MRSA17-1 measured by liquid dilution method.
In test [20] the test system is Enterococcus faecium. Nature of the test: Antibacterial activity against Enterococcus faecium EFM17-2 measured by liquid dilution method.
Test [21] relates to Staphylococcus epidermidis. The test is described as follows: Antibacterial activity against methicillin-sensitive Staphylococcus epidermidis MSSE17-3 measured by liquid dilution method.
The test system of test [22] is Staphylococcus aureus. Nature of the test: Antibacterial activity against methicillin-resistant Staphylococcus aureus MRSA17-5 measured by liquid dilution method.
Test [23] has as its system Staphylococcus epidermidis. Nature of the test: Antibacterial activity against methicillin-sensitive Staphylococcus epidermidis MSSE17-1 measured by liquid dilution method.
In test [24] the test system is Staphylococcus aureus. The test is described as follows: Antibacterial activity against methicillin-resistant Staphylococcus aureus ATCC 33591 measured by liquid dilution method.
The test system of test [25] is Enterococcus faecalis. The test is described as follows: Antibacterial activity against Enterococcus faecalis EFA17-1 measured by liquid dilution method.
Test [26] has as its system Escherichia coli. The test is described as follows: Antibacterial activity against Escherichia coli ATCC 25922 measured by liquid dilution method.
For test [27], the system named is Staphylococcus aureus. Nature of the test: Antibacterial activity against methicillin-resistant Staphylococcus aureus NRS384 measured by liquid dilution method.

Each structure is given as a SMILES string. ≈ marks a conversion by molar mass, not a printed value.

These results are taken from ChEMBL document CHEMBL5104172, “Design, synthesis, and antibacterial activity of derivatives of Tryptophanyl-tRNA synthetase inhibitor indolmycin” (Eur J Med Chem, 2022).

Consider `CNC1=NC(=O)[C@@H]([C@@H](C)c2c[nH]c3cccc(F)c23)O1`, for which the MIC in test [1], in test [2], in test [3], in test [4], in test [5] and in [6] was > 128 µg/mL throughout. Moreover, the MIC in [7], in [8], in test [9], in test [10], in test [11] and in test [12] was > 128 µg/mL throughout. Moreover, the MIC in test [13], in [14], in test [15], in [16], in test [17] and in [18] was > 128 µg/mL in each case. Further, the MIC in [19], in [20], in [21], in [22], in [23] and in test [24] was > 128 µg/mL throughout. The MIC – broadly, the smallest concentration in the dilution series that meets the test's criterion for growth inhibition – in test [25] was > 128 µg/mL.

`CNC1=NC(=O)[C@@H]([C@@H](C)c2c[nH]c3ccccc23)O1`: the MIC in test [1], in test [2], in [3], in test [4], in test [5] and in test [6] was > 128 µg/mL each time. In addition, the MIC in test [7], in [8], in [9], in [10], in test [11] and in test [12] was > 128 µg/mL each time. Also, the MIC in test [13], in test [14], in test [15], in test [16], in [17] and in test [18] was > 128 µg/mL in each case. Besides, the MIC in test [19], in test [20], in test [21], in test [22], in test [23] and in [24] was > 128 µg/mL in each case. Further, the minimal inhibitory concentration (MIC) in test [25] was > 128 µg/mL.

On to `CNC1=NC(=O)C(C(C)c2c[nH]c3ccccc23)S1` (racemic), for which the MIC in test [26] is > 128 µg/mL; in [27], > 128 µg/mL; in test [16] it was 4 µg/mL (≈ 14.6 µM).

With `CNC1=NC(=O)C(C(C)c2c[nH]c3cccc(Cl)c23)O1` (racemic), the values for the MIC in test [26], in [27] and in test [16] were 128 µg/mL (≈ 439 µM), 2 µg/mL (≈ 6.86 µM) and 1 µg/mL (≈ 3.43 µM), respectively.

`CNC1=NC(=O)C(C(C)c2c[nH]c3ccccc23)O1` (racemic): the MIC in test [26], in [27] and in test [16] was 1 µg/mL (≈ 3.89 µM) throughout.

In the case of `CNC1=NC(=O)C(C(C)c2c[nH]c3cccc(N4CCCC4)c23)O1` (racemic), the figures for the MIC in test [26], in [27] and in test [16] were > 128 µg/mL, > 128 µg/mL and 128 µg/mL (≈ 392 µM), respectively.

Turning to `CNC1=NC(=O)C(C(C)c2c[nH]c3cccc(F)c23)S1` (racemic), the results for the MIC in [26], in [27] and in test [16] were > 128 µg/mL, > 128 µg/mL and 8 µg/mL (≈ 27.5 µM), respectively.

For the compound `CNC1=NC(=O)C(C(C)c2c[nH]c3c(F)cccc23)O1` (racemic), the MIC in [26] turned out to be 16 µg/mL (≈ 58.1 µM); in test [27], 8 µg/mL (≈ 29.1 µM); in test [16] it was 8 µg/mL (≈ 29.1 µM).

For `CNC1=NC(=O)C(C(C)c2c[nH]c3cc(Br)ccc23)O1` (racemic), the MIC in [26] is 4 µg/mL (≈ 11.9 µM); in test [27], 16 µg/mL (≈ 47.6 µM); in [16] it was > 128 µg/mL.

For `CNC1=NC(=O)C(C(C)c2c[nH]c3c(Br)cccc23)O1` (racemic), the MIC in test [26], in test [27] and in test [16] was > 128 µg/mL each time.

Turning to `CNC1=NC(=O)C(C(C)c2c[nH]c3cccc(Cl)c23)S1` (racemic), the MIC in test [26] was > 128 µg/mL; in test [27] it was > 128 µg/mL; in [16] it was 8 µg/mL (≈ 26 µM).

As for `CNC1=NC(=O)C(C(C)c2c[nH]c3ccc(C)cc23)O1` (racemic), the MIC in test [26], in [27] and in [16] was > 128 µg/mL in each case.

Consider `CC(c1c[nH]c2cccc(F)c12)C1OC(N)=NC1=O` (racemic), for which the MIC in test [26] is > 128 µg/mL; in test [27], > 128 µg/mL; in test [16], 16 µg/mL (≈ 61.2 µM).

For `CNC1=NC(=O)C(C(C)c2c[nH]c3ccc(Br)cc23)O1` (racemic), the MIC in test [26] is 4 µg/mL (≈ 11.9 µM); in [27], 64 µg/mL (≈ 190 µM); in [16], > 128 µg/mL.

On to `CC(c1c[nH]c2cccc(F)c12)C1SC(N)=NC1=O` (racemic), for which the MIC in test [26] is > 128 µg/mL; in test [27], > 128 µg/mL; in test [16] it was 16 µg/mL (≈ 57.7 µM).

As for `CNC1=NC(=O)C(C(C)c2c[nH]c3cc(C)ccc23)O1` (racemic), the MIC was 16 µg/mL (≈ 59 µM) in [26], 8 µg/mL (≈ 29.5 µM) in test [27] and > 128 µg/mL in test [16].
